From PMC12892976, “Alkylation-based optimization of antifungal FPPS inhibitors yields a potent, broad-spectrum lipophilic zoledronate derivative” (mBio, 2025)
≈ marks a conversion by molar mass, not a printed value.

How the values were obtained:
[1] = system: Candida dubliniensis; test: MIC broth microdilution (CLSI); type: cell-based; conditions: Candida dubliniensis M230642
Procedure: (§2) Antifungal susceptibility was determined by broth microdilution according to the CLSI guidelines described in M27-Ed4 ([16]).

[2] = system: Scedosporium apiospermum; test: MIC broth microdilution (CLSI); type: cell-based; conditions: Scedosporium apiospermum 04-16-022-2268
Procedure: as §2

[3] = system: Trichophyton interdigitale; test: MIC broth microdilution (CLSI); type: cell-based; conditions: Trichophyton interdigitale R-234
Procedure: as §2

[4] = system: Cryptococcus tetragattii; test: MIC broth microdilution (CLSI); type: cell-based; conditions: Cryptococcus tetragattii WM779
Procedure: as §2

[5] = system: Candida auris; test: MIC broth microdilution (CLSI); type: cell-based; conditions: Candida auris CDC-0384
Procedure: as §2

[6] = system: Scedosporium apiospermum; test: checkerboard drug interaction (FICI, MICc); type: cell-based;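 note: simplified diagonal checkerboard screen of antifungal plus FPPS inhibitor pairs, with FICI computed under the Loewe additivity model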
Procedure: (§3) Drug interactions between antifungals and FPPS inhibitors were investigated using a simplified checkerboard diagonal screening method ([45]). […] FICIs were determined according to the Loewe additivity model ([17]).

[7] = system: Cryptococcus bacillisporus; test: checkerboard drug interaction (FICI, MICc); type: cell-based;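 note: interaction of antifungals with FPPS inhibitors assessed by a simplified diagonal checkerboard screen, with FICI computed under the Loewe additivity model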
Procedure: as §3

[8] = system: Trichophyton soudanense; test: MIC broth microdilution (CLSI); conditions: Trichophyton soudanense R-167
Procedure: as §2

[9] = system: Cryptococcus deneoformans; test: MIC broth microdilution (CLSI); type: cell-based; conditions: Cryptococcus deneoformans JEC21
Procedure: as §2

[10] = system: Aspergillus udagawae; test: checkerboard drug interaction (FICI, MICc); type: cell-based;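 note: simplified diagonal checkerboard screen pairing antifungals with FPPS inhibitors, FICI calculated using the Loewe additivity model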
Procedure: as §3

[11] = system: Pichia kudriavzevii; test: MIC broth microdilution (CLSI); type: cell-based; conditions: Pichia kudriavzavii ATCC 6258
Procedure: Antifungal susceptibility was determined by broth microdilution according to the CLSI guidelines described in M27-Ed4 ([16]). […] MFC was determined by back-plating drug-treated cultures from MIC broths onto SDA plates. The MFC was defined as the lowest concentration from which no colonies could be cultured.

[12] = system: Aspergillus felis; test: checkerboard drug interaction (FICI, MICc); type: cell-based;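 note: simplified diagonal checkerboard screen pairing antifungals with FPPS inhibitors, FICI calculated under the Loewe additivity model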
Procedure: as §3

[13] = system: Nannizzia gypsea; test: MIC broth microdilution (CLSI); type: cell-based; conditions: Nannizzia gypsea R-131
Procedure: as §2

[14] = system: Trichophyton interdigitale; test: checkerboard drug interaction (FICI, MICc);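 note: simplified diagonal checkerboard screen pairing antifungals with FPPS inhibitors, FICI values calculated under the Loewe additivity model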
Procedure: as §3

[15] = system: Rhizopus oryzae; test: checkerboard drug interaction (FICI, MICc); type: cell-based;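 note: simplified diagonal checkerboard screen pairing antifungals with FPPS inhibitors, FICI calculated under the Loewe additivity model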
Procedure: as §3

[16] = system: Nannizzia nana; test: MIC broth microdilution (CLSI); type: cell-based; conditions: Nannizzia nana R-133
Procedure: as §2

[17] = system: Aspergillus parafelis; test: checkerboard drug interaction (FICI, MICc);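 note: simplified diagonal checkerboard screen pairing antifungals with FPPS inhibitors, FICI calculated under the Loewe additivity model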
Procedure: as §3

[18] = system: Microsporum canis; test: MIC broth microdilution (CLSI); conditions: Microsporum canis R-232
Procedure: as §2

[19] = system: Candida tropicalis; test: MIC broth microdilution (CLSI); type: cell-based; conditions: Candida tropicalis M230640
Procedure: as §2

[20] = system: Fusarium oxysporum; test: checkerboard drug interaction (FICI, MICc); type: cell-based;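 note: simplified diagonal checkerboard screen pairing antifungals with FPPS inhibitors, FICI calculated under the Loewe additivity model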
Procedure: as §3

[21] = system: Candida parapsilosis; test: checkerboard drug interaction (FICI, MICc); type: cell-based;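 note: simplified diagonal checkerboard screen pairing antifungals with FPPS inhibitors, with FICI computed under the Loewe additivity model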
Procedure: as §3

[22] = system: Cryptococcus bacillisporus; test: MIC broth microdilution (CLSI); type: cell-based; conditions: Cryptococcus bacillisporus NIH179
Procedure: as §2

[23] = system: Mucor circinelloides; test: checkerboard drug interaction (FICI, MICc); type: cell-based
Procedure: as §3

[24] = system: Aspergillus udagawae; test: MIC broth microdilution (CLSI); type: cell-based; conditions: Aspergillus udagawae 8G81
Procedure: as §2

[25] = system: Saccharomyces cerevisiae biofilms; test: biofilm XTT reduction assay (SIC80, SFICI); type: cell-based; conditions: FLC:10-ZOL combination, Saccharomyces cerevisiae
Procedure: (§4) Biofilms of Cryptococcus were seeded in DMEM, and all other species were seeded in RPMI-1640.

[26] = system: Trichophyton rubrum biofilms; test: biofilm XTT reduction assay (SIC80, SFICI); type: cell-based; conditions: biofilm, agent alone; Trichophyton rubrum 213
Procedure: as §4

[27] = system: Candida albicans biofilms; test: biofilm XTT reduction assay (SIC80, SFICI); conditions: agent alone, Candida albicans SC5314
Procedure: as §4

[28] = system: Aspergillus fumigatus biofilms; test: biofilm XTT reduction assay (SIC80, SFICI); type: cell-based
Text: (§1) […]. […] […].

[29] = system: Candida glabrata biofilms; test: biofilm XTT reduction assay (SIC80, SFICI); type: cell-based
Text: as §1

[30] = system: Aspergillus flavus biofilms; test: biofilm XTT reduction assay (SIC80, SFICI); type: cell-based
Text: as §1

Compound | MIC / MEC [1] | MIC / MEC [4] | antifungal MICc ([7]; in combination with 10-ZOL) | antifungal MICc ([7]; in combination with ZOL) | MIC / MEC [9] | antifungal MICc ([10]; in combination with 10-ZOL) | MIC / MEC [11] | antifungal MICc ([12]; in combination with 10-ZOL) | antifungal MICc ([14]; in combination with 10-ZOL) | antifungal MICc ([15]; in combination with 10-ZOL) | MIC / MEC [16] | antifungal MICc ([17]; in combination with 10-ZOL) | MIC / MEC [19] | antifungal MICc ([20]; in combination with ZOL) | antifungal MICc ([21]; in combination with 10-ZOL) | antifungal MICc ([21]; in combination with ZOL) | MIC / MEC [22] | antifungal MICc ([23]; in combination with 10-ZOL) | antifungal MICc ([23]; in combination with ZOL) | other results
C[C@@H]1[C@H](O)[C@@H](C)/C=C/C=C/C=C/C=C/C=C/C=C/C=C/[C@H](O[C@@H]2O[C@H](C)[C@@H](O)[C@H](N)[C@@H]2O)C[C@@H]2O[C@](O)(C[C@@H](O)C[C@@H](O)[C@H](O)CC[C@@H](O)C[C@@H](O)CC(=O)O[C@H]1C)C[C@H](O)[C@H]2C(=O)O [AMB, amphotericin B] | 0.25 µg/mL (≈ 0.271 µM) | 0.5 µg/mL (≈ 0.541 µM) | 0.125 | 1 | 0.25 µg/mL (≈ 0.271 µM) | 0.25 | 0.5 µg/mL (≈ 0.541 µM) | 2 | 0.25 | 0.13 | 0.5 µg/mL (≈ 0.541 µM) | 1 | 1 µg/mL (≈ 1.08 µM) | 0.5 | 0.5 | 0.5 | 0.25 µg/mL (≈ 0.271 µM) | 0.25 | 0.25 | MIC / MEC [2]: 8 µg/mL (≈ 8.66 µM); MIC / MEC [3]: 0.5 µg/mL (≈ 0.541 µM); MIC / MEC [5]: 2 µg/mL (≈ 2.16 µM); antifungal MICc ([6]; in combination with 10-ZOL): 2; antifungal MICc ([6]; in combination with ZOL): 8; MIC / MEC [8]: 0.5 µg/mL (≈ 0.541 µM); antifungal MICc ([10]; in combination with ZOL): 0.25; antifungal MICc ([12]; in combination with ZOL): 8; MIC / MEC [13]: 0.5 µg/mL (≈ 0.541 µM); antifungal MICc ([14]; in combination with ZOL): 1; antifungal MICc ([15]; in combination with ZOL): 0.13; antifungal MICc ([17]; in combination with ZOL): 4; MIC / MEC [18]: 1 µg/mL (≈ 1.08 µM); antifungal MICc ([20]; in combination with 10-ZOL): 1; MIC / MEC [24]: 2 µg/mL (≈ 2.16 µM)
OC(Cn1cncn1)(Cn1cncn1)c1ccc(F)cc1F [FLC, fluconazole] | 0.125 µg/mL (≈ 0.408 µM) | 4 µg/mL (≈ 13.1 µM) | 1 | 0.125 | 0.5 µg/mL (≈ 1.63 µM) | 4 | 32 µg/mL (≈ 104 µM) | 4 | 32 | 32 | 32 µg/mL (≈ 104 µM) | 4 | 16 µg/mL (≈ 52.2 µM) | 64 | 1 | 0.25 | 1 µg/mL (≈ 3.27 µM) | 32 | 32 | SICc [25]: 64 µg/mL; SIC80 [26]: 2,048 µg/mL; SIC80 [27]: 512 µg/mL; SICc ([28]; FLC:10-ZOL combination, Aspergillus fumigatus): 512 µg/mL; SIC80 ([28]; agent alone, Aspergillus fumigatus ATCC 204305): >2,048 µg/mL; SICc ([29]; FLC:10-ZOL combination, Candida glabrata): 512 µg/mL; SIC80 ([29]; agent alone, Candida glabrata CBS138): >2,048 µg/mL; SICc ([30]; FLC:10-ZOL combination, Aspergillus flavus): 512 µg/mL; SIC80 ([30]; agent alone, Aspergillus flavus ATCC 204304): 1,024 µg/mL
